Tests used:
[1] = Vital sign monitoring after iv injection; assay type: in vivo; conditions: iv 156 ± 54 MBq (0.63 ± 0.49 µg), anesthetized piglets
Text: The radiation safety of the newly developed MCT1/MCT4-specific radioligand [^18F]FACH was preclinically investigated. […] Afterwards, volumes of interest (VOIs) of the various organs were manually defined using the respective whole-body CT dataset for anatomical orientation. The estimated TIACs were extrapolated to the human entity (Equation (2)), followed by estimation of the organ doses with OLINDA 2.1 and calculation of the effective dose using tissue weighting factors as published in Publication 103 of the International Commission of Radiation Protection (ICRP103). Finally, it can be concluded that [^18F]FACH is safe with respect to the radiation risk that is caused by its systemic application for PET studies. This supports and encourages the translation of this newly developed radiopharmaceutical to clinical study phases.
Three piglets (age: ~6 weeks, weight: ~13–15 kg) were fasted on the day of imaging and received an intranuscular. injection of 1 mL azaperone and 4 mL ketamine to introduce anesthesia. […] During narcosis, the animals maintained spontaneous respiration and no mandatory ventilation was applied. The subjects were sequentially imaged after an iv injection (contralateral ear vein) of 156 ± 54 MBq [^18F]FACH (0.63 ± 0.49 µg) in a PET/CT system (Biograph16, SIEMENS, Erlangen, Germany). […]

[2] = Whole-body PET/CT distribution of activity; assay type: in vivo, piglets
Experimental: Early accumulation in the bone structures might be related to defluorination. At later time points, activity also accumulated in the gall bladder and the urinary bladder.
Three piglets (age: ~6 weeks, weight: ~13–15 kg) were fasted on the day of imaging and received an intranuscular. injection of 1 mL azaperone and 4 mL ketamine to introduce anesthesia. […] During narcosis, the animals maintained spontaneous respiration and no mandatory ventilation was applied. The subjects were sequentially imaged after an iv injection (contralateral ear vein) of 156 ± 54 MBq [^18F]FACH (0.63 ± 0.49 µg) in a PET/CT system (Biograph16, SIEMENS, Erlangen, Germany). The piglets were positioned prone with legs alongside the body on a custom-made plastic trough including a piglet head-holder (Figure 5). The PET acquisition was divided into a sequential (4 × 9 min, 3 × 12 min) and a static part (1 × 24 min, 1 × 30 min, 1 × 36 min), each of which was preceded by a low-dose CT to acquire structural data for attenuation correction (AC) and anatomical orientation (Figure 6). Post mortem, the urine was collected by bladder punctuation, weighted, and divided into three 1 mL samples for activity measurements in a gamma-counter (Packard Cobra II 5003 Auto Gamma Counting System, GMI, Ramsey, MN, USA).
The image data were analyzed with ROVER (ABX, Radeberg, Germany; v. 3.0.46h). […]

## CCCN(CCC[18F])c1ccc(/C=C(\C#N)C(=O)O)c(OC)c1 [[^18F]FACH, (E)-2-cyano-3-{4-[(3-[^18F]fluoropropyl)(propyl)amino]-2-methoxyphenyl}acrylic acid]
[1]
  adverse effects based on vital sign monitoring: no adverse effects were observed
[2]; one representative animal, PET at different times p.i.
  distribution of activity (organs with high uptake): high uptake in the liver, pancreas, small intestines, and spleen
[2]; rapid uptake in liver, later gall bladder
  route of excretion indicated by PET: hepatobiliary excretion
